No end group written: not given here.
Key:
[1] = molecular target: Human recombinant CD4 (Homo sapiens, UniProt P01730); experiment: Polymerization of human recombinant CD4 (non-reducing PAGE); type: biochemical; design: key: The Table indicates whether or not a polymerization had occurred (+); conditions: 50 μM peptide, 300 ng recCD4, Hepes buffer, 15 minutes at 68° C.
Method: Fifty μM of DTT is used as a positive control under the same conditions. LDS sample buffer (7.5 μl; non-reducing) is then added to 15 μl of the peptide/CD4 mixture. The mixture is then submitted to non-reducing PAGE. After Coomassie Blue staining, protein bands are analyzed for the presence of monomeric, dimeric or multimeric recCD4, as identified by the decreased migratory capacities into the gel. The Table indicates whether or not a polymerization had occurred (+).

[2] = Evaluation of reductase activity on a synthetic peptide (fluorescence de-quenching); type: biochemical; conditions: peptide 25 μM, 2.5 μM (FITC-Gly-Cys-Asp)ox, PBS, 40 minutes, 25° C., fluorescence 530 nm
Method: The reductase activity of the peptides is determined using a fluorescent described in Tomazzolli et al. (2006) Anal. Biochem. 350, 105-112. Two peptides with a FITC label become self-quenching when they covalently attached to each other via a disulfide bridge. Upon reduction by a peptide in accordance with the present invention, the reduced individual peptides become fluorescent again.
Control experiments were performed with a peptide with a “normal” reducing peptide, i.e. a peptide with a redox motif but without additional histidine and with a peptide comprising no redox motif.
A FITC -NH-Gly-Cys-Asp-COOH peptide was synthesized (Eurogentec, Belgium) and self-quenched by solubilization in DMSO ((FITC-Gly-Cys-Asp)ox). The reduction of 2.5 μM (FITC-Gly-Cys-Asp)ox was followed on a 96 well plate during 40 minutes (25° C.) after incubation in PBS with peptide (25 μM) as listed in the accompanying table, or with 2 mM Dithiothreitol (DTT). Reduction was measured as a function of increase in fluorescence read at 530 nm after excitation at 494 nm, using a CytoFluor® multiplate reader (Applied Biosystems). Results are shown in the table of example 10 under the heading “Reductase activity”.

[3] = tested on: polyclonal CD4+CD25− cells obtained from animals in which EAE is effective; experiment: Bystander suppression assay with T cell line from immunised mice; type: cell-based, C57BL/6 mice; conditions: CD4+ T cell line from mice immunised 3 x 20 μg sc on aluminium hydroxide, after four re-stimulations
Method: Groups of C57BL/6 mice are immunised subcutaneously (20 μg) with the peptide of example 1 which contains the modified sequence motif [SEQ ID NO: 1] or control peptide [SEQ ID NO: 2, 4 or 7] adsorbed onto aluminium hydroxide. Three injections are performed at 2-week intervals. Ten days after the last immunisation, mice are sacrificed and CD4+ T cells (2×10^6 cells) are prepared from the spleen using magnetic beads. CD4+ T cells are then stimulated in vitro by the MOG T cell epitope (20 μg/ml) presented by adherent spleen cells (2×10^6 cells).
After four re-stimulations, a T cell line is tested in a bystander suppression assay with, as target cells, polyclonal CD4^+CD25^− cells obtained from animals in which EAE (Experimental autoimmune encephalomyelitis) is effective.

Substance	CD4 polymerisation [1]	Reductase activity (%) [2] [%]	capacity to induce death in target cells [3]
AHACPYCVRSLQPLALEGSLQKRG (proinsulin) [SEQ ID NO: 110]	+	13	–
AAHCHPCVRSLQPLALEGSLQKRG (proinsulin) [SEQ ID NO: 113]	+	64	–
HCPYCSRVVHLYRNGKD [SEQ ID NO: 1]	–	–	have the capacity to induce death in target cells
AAACHGCVRSLQPLALEGSLQKRG (proinsulin) [SEQ ID NO: 114, reference compound]	low	22	–
H CPYCVRSLQPLALEGSLQKRG (HCPYCVRSLQPLALEGSLQKRG; proinsulin) [SEQ ID NO: 108]	+	68	–
AAACHPCVRSLQPLALEGSLQKRG (proinsulin) [SEQ ID NO: 112, reference compound]	+	75	–
HAACPYCVRSLQPLALEGSLQKRG (proinsulin) [SEQ ID NO: 109]	+	0	–
AAACPYCVRSLQPLALEGSLQKRG (proinsulin) [SEQ ID NO: 111, reference compound]	+	6	–
CPYCSRVVHLYRNGKD (CPYCSRVVHLYRNGKD-NH2; cysteine pairing not given here) [SEQ ID NO: 7, reference compound]	–	–	have the capacity to induce death in target cells
